Here are results for 5 molecules from article PMC10895676, “Antiviral Activity of Lipophilic Nucleoside Tetraphosphate Compounds” (Journal of Medicinal Chemistry, 2024).

Data set [1] in a line: Cytotoxicity, inhibition of CEM/TK– cell proliferation. Format: cell-based. The conditions noted are these: human, CEM/TK– cells (CD4+ T-cells), read-out: toxicity CC50.
The nature of data set [2]: Cytotoxicity, inhibition of CEM cell proliferation. Format: cell-based. The conditions noted are these: human, CEM cells (CD4+ T-cells), read-out: toxicity CC50.
The next data set concerns HIV-2 (ROD). In words: Anti-HIV replication assay, HIV-2 (ROD) in wild-type CEM/0 cells. Format: cell-based. The conditions noted are these: for EC50: Human immunodeficiency virus 2, CCRF-CEM, read-out: HIV-2 (ROD) EC50; for selectivity index (SI): CC50/EC50, HIV-2 (ROD) in CEM cells. In outline:
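Wild-type CEM/0 or thymidine kinase-deficient CEM/TK– T-cells (~3 × 10^5 cells/mL) were infected with 100 CCID50/mL HIV-2(ROD) in the presence of compound dilutions. After 4–5 days at 37 °C, virus-induced cytopathicity and syncytium formation were scored microscopically.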

Another data set has as its system pig liver esterase (PLE). In words: Enzymatic hydrolysis with pig liver esterase (PLE). The conditions noted are these: pig liver esterase in phosphate buffer, PLE in phosphate buffer pH 7.3, 37 °C, read-out: PLE t1/2 (converted). Format: in vitro ADME. The procedure:
To confirm the enzymatic hydrolysis process, TetraPPPPro-nucleotides 4–9 bearing different kinds of lipophilic groups attached to the δ-phosph(on)ate group were incubated with PLE in phosphate buffer.
Then, 833 μL of 50 mM phosphate buffer (pH 7.3) and 125 μL of DMSO were added to the 6.0 mM hydrolysis solutions. The reaction was started by addition of 62.5 μL of PLE in phosphate buffer (100 units/mL), and the mixture was incubated at 800 rpm at 37 °C in a thermomixer. (1). At different times, aliquots (75 μL) were taken and stopped by the addition of […] of MeOH. The mixture was stored in liquid nitrogen. When testing, samples were warmed up to room temperature, and 60 μL of the liquid was directly injected into HPLC analysis. (2). 40 μL for each extraction was stored in liquid nitrogen. When testing, samples were warmed up to room temperature, and 30 μL of the liquid was taken and injected into the analytical RP-18-HPLC instrument. The calculation of t1/2 was performed analogously to that for the chemical hydrolysis studies.

[3] abbreviates: wild-type CEM/0 cells, mean ± SD, n = 2–3.

Like-named read-outs stand apart in the source and are kept apart here.

For `CCCCCCCCCCCCCCCCCCP(=O)(OCCCC)OP(=O)(O)OP(=O)(O)OP(=O)(O)OC[C@@H]1C=C[C@H](n2cc(C)c(=O)[nH]c2=O)O1` (stereo partly drawn) [5a, δ-(Alkyl-C4)-δ-C-(alkyl-C18)-d4T4P], the CC50 (commonly the concentration that lowers cell viability or growth by half) in data set [1] was determined as 49.8 µM; in data set [2], 44.6 µM. The EC50 (usually the concentration that produces a half-maximal response) with HIV-2 (ROD) turned out to be 0.33 ± 0.12 µM. Also, in the data set on pig liver esterase (PLE), the half-life at 0.45 mM was above 50 h.

As for `CCCCCCCCCCCCCCCCCCOP(=O)(OCCCC)OP(=O)(O)OP(=O)(O)OP(=O)(O)OC[C@@H]1C=C[C@H](n2cc(C)c(=O)[nH]c2=O)O1` (stereo partly drawn) [4d, δ-(Alkyl-C4; alkyl-C18)-d4T4P], the values for the CC50 in data set [1] and in data set [2] were 46.8 µM and 43.9 µM, respectively. Further, in the data set with HIV-2 (ROD), the “selectivity index (SI)” value came to 522. The EC50 in the data set on HIV-2 (ROD) (setting [3]) is 0.084 ± 0.018 µM. For the same molecule, in the data set on pig liver esterase (PLE), the half-life at 0.45 mM is above 50 h.

For the molecule `CCCCCCCCCCCCCCCCCCOP(=O)(O)OP(=O)(O)OP(=O)(O)OP(=O)(O)OC[C@@H]1C=C[C@H](n2cc(C)c(=O)[nH]c2=O)O1` [compound 20, δ-(Alkyl-C18)-d4T4P], the CC50 in data set [1] and in data set [2] was above 100 µM in each case. In addition, in the data set with HIV-2 (ROD), the “selectivity index (SI)” value is on record as above 200. The EC50 in the data set with HIV-2 (ROD) (setting [3]) stood at 0.5 ± 0.16 µM. Moreover, in the data set with pig liver esterase (PLE), the half-life at 0.45 mM was above 50 h.

On to `CCCCCCCCCCCCCCCCCCP(=O)(O)OP(=O)(O)OP(=O)(O)OP(=O)(O)OC[C@@H]1C=C[C@H](n2cc(C)c(=O)[nH]c2=O)O1` [compound 24, δ-C-(Alkyl-C18)-d4T4P], for which the 50% cytotoxic concentration (CC50) in data set [1] stood at 40.1 µM; in data set [2], 23.2 µM. Moreover, in the data set with HIV-2 (ROD) (setting [3]), the EC50 was 0.24 ± 0.07 µM. In the data set on pig liver esterase (PLE), the half-life at 0.45 mM was above 50 h.

`Cc1cn([C@H]2C=C[C@@H](COP(=O)(O)OP(=O)(O)OP(=O)(O)OP(=O)(O)O)O2)c(=O)[nH]c1=O` [d4T4P, 2′,3′-didehydro-2′,3′-dideoxythymidine-5′-tetraphosphate]: the CC50 in data set [1] and in data set [2] was above 100 µM throughout. Besides, in the data set on HIV-2 (ROD) (setting [3]), the EC50 is 0.22 ± 0.092 µM.
